System: R3
Assay: Indicator displacement assay with host:LCG reporter pair, guest R3
Type: binding
Settings: association constant, competitive dye displacement with LCG, 5 mM phosphate buffer pH 7.3, mean ± SD of triplicate
Source text: The binding affinity of the anionic calixarene activators toward cationic peptides was investigated using a small library of highly hydrophilic oligoarginines, from 3 to 8 residues. These peptides are not able to spontaneously transverse zwitterionic artificial membranes in vesicle assays, which allows the accurate evaluation of the calixarenes 1 and 2 as counterion activators without interferences from the transport of the peptide alone.[43]−[45] First, the formation of host–guest complexes between 1/2 and the selected peptides was verified by indicator displacement assays using lucigenin (LCG) as the fluorescent indicator.[46] As previously reported for other sulfonatocalixarene derivatives,[46] the formation of host–guest binding pairs between calixarenes 1/2 in the E- and Z-forms and LCG results in significant static fluorescence quenching (see Figure 2A and Figures S26 and S27). Quantitative analysis of the fluorescence titration data using a 1:1 host:guest binding model allows the determination of the respective binding constants (K) reported in Table 1. As can be observed, both 1/2 display high affinity for the LCG dye, on the 10^7 M^–1 range, which seems to be independent of the nature and conformation of the azobenzene arm. […] The host:LCG binding pairs were then employed in the above-mentioned indicator displacement assays to investigate the binding affinity of oligoarginines toward 1 and 2 (see Figure 2B and Figures S29–S33).
The binding affinities of the counterion activators and peptide complexes were analyzed by indicator displacement assays. The fluorescent dye chosen for these experiments was lucigenin (LCG) due to its complex with the receptor SC4 being well characterized and due to the high variation of emission between its bound and free form. Firstly, the affinity for LCG was calculated for each of the activators, by titrations followed by fluorescence spectroscopy leading to almost full quenching of the emission. For the competitive assays, a concentration of LCG and activator was chosen in order to have approximately 90% of complexed dye and that mixture was then titrated with each of the peptides, leading to the regaining of emission when LCG was release from the complex.
Figure S26 - Fluorescence titration of the lucigenin dye with increasing concentrations of A) E-1 and B) Z–1 in water (5 mM phosphate buffer pH 7.3). LCG concentration was fixed 0.2 µM in all experiments, except for the first E-1 titrations were [LCG]
(1 picture or pasted object on this page, not shown here)
Figure S29 - Indicator displacement titration of the several oligoarginines A) R3 B) R4 C) R6 and D) R8, using SC4:LCG as the reporter pair (5 mM phosphate buffer pH 7.3). LCG and SC4 concentrations were fixed at A) 0.22 and 0.50 µM, for all three replicates, B) 0.22 and 4.7 µM for the first titration and 0.22 and 4.3 µM for the remaining two replicates, C) 0.22 and 0.45 µM and 1.1 and 0.85 µM and D) 0.28 and 0.43 µM and 1.1 and 0.85 µM, respectively, from left to right.
Figure S30 - Indicator displacement titration of the several oligoarginines A) R3 B) R4 C) R6 and D) R8, using E-1:LCG as the reporter pair (5 mM phosphate buffer pH 7.3) LCG and E-1 concentrations were fixed at A) 0.11 and 0.25 µM, for all three replicates, B) 0.22 and 0.5 µM, for the first two titrations and 0.22 and 0.23 µM for the remaining replicate, C) 4.0 and 3.8 µM and 0.22 and 0.5 µM, D) 4 and 3 µM and 0.22 and 0.5 µM, respectively, from left to right. […]

Row | SMILES | Apparent affinity constant K for R3
1 | O=S(=O)([O-])c1cc2c(O)c(c1)Cc1cc(S(=O)(=O)[O-])cc(c1O)Cc1cc(S(=O)(=O)[O-])cc(c1OCCCCCCOc1ccc(/N=N/c3ccccc3)cc1)Cc1cc(S(=O)(=O)[O-])cc(c1O)C2.[Li+].[Li+].[Li+].[Li+] [E-1] | (2.6 ± 0.8) × 10^6 M^–1
2 | CCCCc1ccc(/N=N/c2ccc(OCCCOc3c4cc(S(=O)(=O)[O-])cc3Cc3cc(S(=O)(=O)[O-])cc(c3O)Cc3cc(S(=O)(=O)[O-])cc(c3O)Cc3cc(S(=O)(=O)[O-])cc(c3O)C4)cc2)cc1.[Li+].[Li+].[Li+].[Li+] [E-2] | (4.1 ± 0.2) × 10^6 M^–1
3 | O=S(=O)([O-])c1cc2c(O)c(c1)Cc1cc(S(=O)(=O)[O-])cc(c1O)Cc1cc(S(=O)(=O)[O-])cc(c1OCCCCCCOc1ccc(/N=N\c3ccccc3)cc1)Cc1cc(S(=O)(=O)[O-])cc(c1O)C2.[Li+].[Li+].[Li+].[Li+] [Z-1] | (2.4 ± 0.6) × 10^6 M^–1
4 | CCCCc1ccc(/N=N\c2ccc(OCCCOc3c4cc(S(=O)(=O)[O-])cc3Cc3cc(S(=O)(=O)[O-])cc(c3O)Cc3cc(S(=O)(=O)[O-])cc(c3O)Cc3cc(S(=O)(=O)[O-])cc(c3O)C4)cc2)cc1.[Li+].[Li+].[Li+].[Li+] [Z-2] | (3.6 ± 0.3) × 10^6 M^–1

Reference: article PMC10288505, “Photoswitchable Calixarene Activators for Controlled Peptide Transport across Lipid Membranes” (Journal of the American Chemical Society, 2023)
